One experiment deals with T1, CB1 (Rattus norvegicus, UniProt P20272).
T1 construct: membrane preparations from rat brain (source of CB1); tissue Bioivt RAT00BRAINMZN; host or cells: rat brain
The experiment in a line: Radioligand competition binding with [3H]-CP-55,940, rat brain membranes. As to conditions: for Emax: maximal radioligand displacement, read-out: rCB1 binding Emax [SEM]; for Ki: [3H]-CP-55,940 competition, rat brain membranes. The protocol:
The results were analyzed using nonlinear regression to determine the IC50 and Ki values for each ligand (Prism by GraphPad Software, Inc., San Diego, CA). The Ki values are expressed as the mean of two to three experiments each performed in triplicate.

Another experiment addresses T2, CB1R (Homo sapiens, UniProt P21554, C107A/C139A/C149A/C238A/C355A/C382A/C386A/C415A/C431A/C449A/C98A/R336C).
T2 construct: N-terminal FLAG tag and C-terminal histidine tag was added to human full-length CB1; FLAG (N); histidine tag (C); made in house; host or cells: Spodoptera frugiperda Sf9 (baculovirus)
Briefly: Bimane fluorescence of TM6-labeled minimal cysteine CB1R. It is filed as biochemical. As to conditions: 10 μM ligand; apo 459 nm. The protocol: A minimal cysteine version of CB1R was generated[73] where all the cysteine residues (except C256 and C264) were mutated to alanine. […] Excess label was removed using size exclusion chromatography on a Superdex 200 10/300 Increase column in 20 mM HEPES pH 7.5, 100 mM NaCl and 0.01% MNG/0.001% CHS. Bimane-labeled CB1R at […] was incubated with ligands (10 μM) for one hour at room temperature. Fluorescence data was collected at room temperature in a 150 μL cuvette with a FluorEssence v3.8 software on a Fluorolog instrument (Horiba) in photon-counting mode. Bimane fluorescence was measured by excitation at 370 nm with excitation and emission bandwidth passes of 4 nm. The emission spectra were recorded from 410 to 510 nm with 1 nm increment and 0.1 s integration time.

For experiment [1], the target named is T3, hCB1 (Homo sapiens, UniProt P21554). The experiment in a line: Lance Ultra cAMP accumulation assay (inhibition of forskolin-stimulated cAMP), CHO cells. It is filed as cell-based. Details: expressed in transfected cells. As for the experimental part:
The inhibition of forskolin-stimulated cAMP accumulation assays was carried out using PerkinElmer’s Lance Ultra cAMP kit following the manufacturer’s protocol. In brief, CHO cells stably expressing human CB1R were harvested by incubation with Versene (ThermoFisher Scientific, Waltham, MA) for 10 min, washed once with Hank’s Balanced Salt Solution, and resuspended in stimulation buffer at ~200 cells/μL density. The ligands at eight different concentrations (0.001–10,000 nM) in stimulation buffer (5 μL) containing forskolin (2 μM final concentration) were added to a 384-well plate followed by the cell suspension (5 μL; ~1000 cells/well). The plate was incubated for 30 min at room temperature. Eu-cAMP tracer (5 μL) and Ulight-anti-cAMP (5 μL) working solutions were then added to each well, and the plate was incubated at room temperature for an additional 60 min. Results were measured on a Perkin-Elmer EnVision plate reader. The EC50 values were determined by nonlinear regression analysis using Prism software (GraphPad Software, Inc., San Diego, CA) and are expressed as the mean of three experiments, each performed in triplicate.
On the technique in general: Cyclic AMP is a second messenger, typically raised through Gs and lowered through Gi signalling.

In experiment [2] the target is T3, hCB1. Briefly: bioSens-All ebBRET effector biosensor signaling profiling, HEK293. Further details: host or cells: HEK293 (HEK293SL clone), transient. Format: cell-based. The protocol:
ebBRET-based effector membrane translocation biosensor assays were conducted at Domain Therapeutics NA Inc. (Montreal, QC, Canada) as previously described. […] HEK293 cells were maintained in Dulbecco’s Modified Eagle Medium (DMEM) (Wisent) supplemented with 1% penicillin- streptomycin (Wisent) and 10% (or 2 % for transfection) fetal bovine serum (Wisent) at 37°C with 5% CO2. All biosensor-coding plasmids and related information are the property of Domain Therapeutics NA Inc. The total amount of transfected DNA was adjusted and kept constant at 1 μg per mL of cell culture to be transfected using salmon sperm DNA (Invitrogen) as ‘carrier’ DNA, PEI (polyethylenimine 25 kDa linear, PolyScience) and DNA (3:1 ml PEI:mg DNA ratio) were first diluted separately in 150 mM NaCl then mixed and incubated for at least 20 minutes at room temperature to allow for the formation of DNA/PEI complexes. During the incubation, HEK293 cells were detached, counted, and re-suspended in maintenance medium to a 350,000 cells per mL density. At the end of the incubation period, the DNA/PEI mixture was added to the cells. Cells were finally distributed in 96-well plates (White Opaque 96-well /Microplates, Greiner) at a density of 35,000 cells per well. Forty-eight hours post-transfection, medium was aspirated and replaced with 100 μl of Hank’s Balanced Salt Solution buffer (HBSS) (Wisent) per well using 450-Select TS Biotek plate washer. After 60 min incubation in this medium, 10 μL of 10 μM e-Coelenterazine Prolume Purple (Methoxy e-CTZ) (Nanolight) was added to each well for a final concentration of 1 μM immediately followed by addition of increasing concentrations of the test compounds to each well using the HP D300 digital dispenser (Tecan). All compounds were assayed at 22 concentrations with each biosensor after a 10-minute room temperature incubation period. […] All BRET ratios were standardized using the universal BRET (uBRET) equation: uBRET=BRETratio-A/B-A×10,000 where A is the BRET ratio obtained from transfection of negative control and B is the BRET ratio obtained from transfection of positive control. […] The data were analyzed using the four-parameter logistic non-linear regression model in GraphPad Prism 9.1 and data were presented as means ± CIs of 1–4 independent experiments.
The SEM was calculated for the logEmax/EC50 ratios using the following equation: SEM=σ/n where σ is the standard deviation, and n is the number of experiments.

The target in experiment [3] is T3, hCB1. The experiment in a line: Tango β-arrestin-2 recruitment assay, HTLA cells. It is filed as cell-based. Details: expressed in transfected cells. As for the experimental part:
(§1) The Tango β-arrestin-2 recruitment assays were performed as described. In brief, HTLA cells were transiently transfected with human CB1R or CB2R Tango DNA construct overnight in DMEM supplemented with 10 % FBS, 100 μg ml−1 streptomycin and 100 U ml−1 penicillin. The transfected cells were then plated into poly-L-lysine-coated 384-well white clear-bottom cell culture plates in DMEM containing 1% dialysed FBS at a density of 10,000–15,000 cells per well. After incubation for 6 h, the plates were added with drug solutions prepared in DMEM containing 1% dialysed FBS for overnight incubation. On the day of assay, medium and drug solutions were removed and 20 μl per well of BrightGlo reagent (Promega) was added. The plates were further incubated for 20 min at room temperature and counted using the Wallac TriLux Microbeta counter (PerkinElmer). The results were analysed using GraphPad Prism 9.1. Each experiment was performed in triplicate and functional […] values were determined from the mean of three independent experiments.
On the technique in general: Recruitment of arrestin is a read-out of receptor activation apart from second messengers.

Experiment [4] addresses T4, hCB2 (Homo sapiens, UniProt P34972). Briefly: Tango β-arrestin-2 recruitment assay, HTLA cells. Format: cell-based. Further details: expressed in transfected cells; host or cells: HTLA (transient). The conditions noted are these: for Emax: HTLA, read-out: hCB2 Tango ß-arrestin recruitment Emax [95% CI]. The protocol:
as §1

In experiment [5] the target is T4, hCB2. The experiment in a line: TRUPATH BRET2 GoA dissociation assay, HEK293T. It is filed as cell-based. Details: expressed in transfected cells; host or cells: HEK293T (transient). As to conditions: HEK-293T, read-out: hCB2 BRET2 + GoA Emax [95% CI]. As for the experimental part:
[…]. GoA dissociation BRET2 assays were performed as previously described with minor modifications. In brief, HEK293T cells were co-transfected overnight with human CB2 receptor, GαoA-Rluc, Gβ3, and Gγ9-GFP2 constructs. After 18–24 hours, the transfected cells were seeded into poly-L-lysine-coated 384-well white clear-bottom cell culture plates at a density of 15,000–20,000 cells and incubated with DMEM containing 1% dialyzed FBS, 100 U mL−1 of penicillin and 100 μg ml−1 of streptomycin for another 24 hours. The next day, the medium was aspirated and washed once with 20 μL of assay buffer (1× HBSS, 20 mM HEPES, 0.1% BSA, pH 7.4). Then, 20 μL of drug buffer containing coelenterazine 400a (Nanolight Technology) at 5 μM final concentration was added to each well and incubated for 5 minutes, followed by the addition of 10 μL of 3X designated drug buffer for 5 minutes. Then, 10 μL of 4X final concentrations of ligands were added for 5 minutes. […] BRET ratio was computed as the ratio of the GFP2 emission to RLuc8 emission. […] Each experiment was performed in triplicate and functional IC50 values were determined from the mean of four independent experiments.

Experiment [6] concerns the target T3, hCB1. Briefly: Cerep HTRF cAMP inhibition assay, hCB1 CHO-K1 cells. Format: cell-based. As for the experimental part:
The hCB1 CHO-K1 cells are suspended in HBSS buffer (Invitrogen) complemented with 20 mM HEPES (pH 7.4), then distributed in microplates at a density of 5.103 cells/well in the presence of either of the following: HBSS (basal control), the reference agonist at 30 nM (stimulated control) or the test compounds. […] Following 30 min incubation at 37°C, the cells are lysed, and the fluorescence acceptor (D2-labeled cAMP) and fluorescence donor (anti-cAMP antibody labeled with europium cryptate) are added. […] Each measurement was done in triplicate.
A general note: Time-resolved FRET reads energy transfer from a long-lived donor to a nearby acceptor.

For experiment [7], the target named is T3, hCB1. The experiment in a line: DiscoverX PathHunter β-arrestin-2 recruitment assay. Format: cell-based. As to conditions: hCB1 DiscoverX ß-arrestin recruitment EC50 [95% CI]. The protocol: PathHunter cell lines (CHO-K1 lineage expressing hCB1) were expanded from freezer stocks according to standard procedures. Cells were seeded in a total volume of 20 μL into white walled, 384-well microplates and incubated at 37°C for the appropriate time prior to testing. For agonist determination, cells were incubated with sample to induce response. Intermediate dilution of sample stocks was performed to generate 5X sample in assay buffer. 5 μL of 5X sample was added to cells and incubated at 37°C or room temperature for 90 to 180 minutes. Vehicle concentration was 1%. […] Microplates were read following signal generation with a PerkinElmer EnvisionTM instrument for chemiluminescent signal detection. Compound activity was analyzed using CBIS data analysis suite (ChemInnovation, CA).
The data were analyzed in GraphPad Prism 9.1 using “dose–response-stimulation log(agonist) versus response (four parameters)” and data were presented as EC50 or pEC50 ± CIs of one independent experiment in duplicate.

Experiment [8] addresses T4, hCB2. The experiment in a line: Cerep cAMP assay. Format: cell-based.
Where [9] appears, read: HEK293, read-out: hCB1 Gi1 Emax [95% CI].
The mark [10] stands for this setting: HEK293, read-out: hCB1 GoB Emax [95% CI].
Setting [11] is: HEK293, read-out: hCB1 Gz Emax [95% CI].

SMILES strings stand for the structures. Values joined by “and” are separate entries in the source; they are usually repeats but may differ in a detail not shown here. Equal entries are not always repeated. Some results are limits rather than exact numbers.

By Emax is commonly meant the size of the effect at its maximum, as opposed to the concentration needed. A word on the Ki: it is the dissociation constant of the complex between target and ligand, obtained from inhibition or displacement. A word on the EC50: it is the concentration giving half of the maximal effect.

T1 sequence (P20272 whole entry): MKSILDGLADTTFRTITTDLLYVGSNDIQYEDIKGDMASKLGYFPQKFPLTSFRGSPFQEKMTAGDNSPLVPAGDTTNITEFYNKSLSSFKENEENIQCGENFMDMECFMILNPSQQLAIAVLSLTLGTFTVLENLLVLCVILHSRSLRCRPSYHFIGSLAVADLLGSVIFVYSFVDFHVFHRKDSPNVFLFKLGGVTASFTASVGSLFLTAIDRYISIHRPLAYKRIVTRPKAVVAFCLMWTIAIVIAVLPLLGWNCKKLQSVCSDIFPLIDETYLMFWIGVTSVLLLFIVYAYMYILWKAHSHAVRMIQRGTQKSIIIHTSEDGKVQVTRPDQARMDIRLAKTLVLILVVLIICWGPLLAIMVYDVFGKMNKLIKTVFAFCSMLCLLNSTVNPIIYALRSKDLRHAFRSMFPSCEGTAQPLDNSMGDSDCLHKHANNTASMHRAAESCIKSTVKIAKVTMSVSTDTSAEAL
T3 sequence (P21554 whole entry): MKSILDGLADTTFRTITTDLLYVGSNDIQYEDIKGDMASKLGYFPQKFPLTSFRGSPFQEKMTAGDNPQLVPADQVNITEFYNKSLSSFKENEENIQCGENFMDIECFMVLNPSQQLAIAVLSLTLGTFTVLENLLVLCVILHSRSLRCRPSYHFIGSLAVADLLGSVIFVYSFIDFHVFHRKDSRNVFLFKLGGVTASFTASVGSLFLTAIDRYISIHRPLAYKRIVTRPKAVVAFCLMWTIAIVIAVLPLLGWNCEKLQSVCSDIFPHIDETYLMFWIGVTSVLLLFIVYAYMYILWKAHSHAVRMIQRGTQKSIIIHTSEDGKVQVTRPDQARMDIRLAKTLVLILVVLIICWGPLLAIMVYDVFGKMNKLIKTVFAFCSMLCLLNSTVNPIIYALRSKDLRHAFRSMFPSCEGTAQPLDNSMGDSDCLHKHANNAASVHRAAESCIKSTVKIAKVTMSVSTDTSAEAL
T4 sequence (P34972 whole entry): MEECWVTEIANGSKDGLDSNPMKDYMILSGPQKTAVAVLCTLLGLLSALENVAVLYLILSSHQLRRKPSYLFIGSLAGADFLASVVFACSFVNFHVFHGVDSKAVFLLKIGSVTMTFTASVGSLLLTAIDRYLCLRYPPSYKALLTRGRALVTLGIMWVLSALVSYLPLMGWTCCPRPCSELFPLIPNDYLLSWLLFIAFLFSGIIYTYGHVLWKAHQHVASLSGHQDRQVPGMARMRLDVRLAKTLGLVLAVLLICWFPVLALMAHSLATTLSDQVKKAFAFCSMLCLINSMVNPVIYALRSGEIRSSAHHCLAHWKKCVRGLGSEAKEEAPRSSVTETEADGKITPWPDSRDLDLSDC
T2 sequence (P21554 whole entry C98A/C107A/C139A/C149A/C238A/R336C/C355A/C382A/C386A/C415A/C431A/C449A): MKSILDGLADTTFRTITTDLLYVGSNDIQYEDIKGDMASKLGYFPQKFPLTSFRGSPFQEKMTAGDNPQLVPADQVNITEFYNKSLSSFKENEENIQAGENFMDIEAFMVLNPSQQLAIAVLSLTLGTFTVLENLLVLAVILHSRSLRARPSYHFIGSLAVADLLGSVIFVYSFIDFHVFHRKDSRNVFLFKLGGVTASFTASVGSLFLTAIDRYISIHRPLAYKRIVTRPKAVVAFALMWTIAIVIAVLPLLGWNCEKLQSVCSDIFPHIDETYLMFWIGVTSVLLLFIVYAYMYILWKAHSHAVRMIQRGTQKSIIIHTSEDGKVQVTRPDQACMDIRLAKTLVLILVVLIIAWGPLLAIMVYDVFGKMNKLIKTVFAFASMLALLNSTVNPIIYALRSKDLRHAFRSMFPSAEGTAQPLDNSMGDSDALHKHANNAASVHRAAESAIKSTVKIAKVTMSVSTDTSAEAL

With `COC(=O)[C@](C)(NC(=O)c1cc(C)n(-c2cccc(C(F)(F)F)c2)n1)c1cccs1` [‘8690], the Emax at CB1 stood at 100%; on hCB1 [1] (CHO, read-out: hCB1 Lance Ultra cAMP Emax [95% CI]), 53%; at hCB1 [2] (setting [9]), 82%; at hCB1 [2] (setting [10]), 83%; at hCB1 [2] (setting [11]), 98%. The Ki was 90 nM and 90.2 nM at CB1 (rCB1 binding Ki [95% CI]); 79.4 nM at CB1 (rCB1 binding pKi [95% CI]). In addition, on CB1R, the “bimane spectrum λmax” value was determined as 459 nm. For the same compound, the EC50 at hCB1 [1] was 473 nM; at hCB1 [2] (hCB1 Gi1 EC50 [95% CI], Gi1 sensor) it was 19.1 nM; at hCB1 [2] (hCB1 GoB EC50 [95% CI], GoB sensor), 18 nM; on hCB1 [2] (hCB1 GoB pEC50 [95% CI], GoB sensor), 15.8 nM; at hCB1 [2] (hCB1 Gz EC50 [95% CI], Gz sensor) it was 33 nM.
Take `COC(=O)[C@@H]1[C@@H]2CCC[C@@H]2CN1C(=O)c1cc(C)n(-c2cccc(C(F)(F)F)c2)n1` [‘6439]: the Emax on CB1 was found to be 106%; at hCB1 [2] (setting [9]), 95%; on hCB1 [2] (setting [10]) it was 100%; at hCB1 [2] (setting [11]) it was 162%; at hCB2 [4] it was 14%; at hCB2 [5], 81%. This compound yielded a Ki on CB1 (rCB1 binding Ki [95% CI]) of 251 nM. For the same compound, the EC50 was over 10000 nM at hCB1 [3]; 63.1 nM at hCB1 [2] (hCB1 Gi1 pEC50 [95% CI]); 60.9 nM at hCB1 [2] (hCB1 GoB EC50 [95% CI]); 63.1 nM at hCB1 [2] (hCB1 GoB pEC50 [95% CI]); 339 nM on hCB1 [2] (hCB1 Gz EC50 [95% CI]); 338 nM at hCB2 [4].
Take `Cc1cc(C(=O)N2CC3(CCC3)C2C2CCCO2)nn1-c1cccc(C(F)(F)F)c1` (stereo not shown) [‘3737]: the Emax on CB1 was found to be 112%; at hCB1 [6] (CHO-K1, read-out: hCB1 Cerep cAMP Emax [95% CI]), 99%; at hCB2 [8] (read-out: hCB2 Cerep cAMP Emax [95% CI]) it was 45%; on hCB2 [4] it was 9%. The compound further returned a Ki at CB1 (rCB1 binding Ki [95% CI]) of 173 nM. The EC50 at hCB1 [6] is 326 nM; on hCB1 [7], over 10000 nM; at hCB2 [8], 4.3 nM; at hCB1 [3] it was over 10000 nM; on hCB2 [4], 1500 nM.
`COC(=O)[C@@H](NC(=O)c1nn(Cc2ccc(F)cc2)c2ccccc12)C(C)(C)C` [MDMB-fubinaca, reference compound]: on CB1R, the “bimane spectrum λmax” value turned out to be 465 nm.
